Common to all, as to assay type: in vivo, mouse
Experiment [1] relates to Tg23 mice (ICERIγ transgenic diabetes model mice). In words: Experimental Example 1: effect of estradiol administration on blood glucose and insulin-producing cells in diabetes model mice. The method, then:
Blood glucose levels were measured by an enzyme-electrode method with ONE TOUCH UltraVue (Johnson & Johnson K.K.) on whole blood taken from tail veins of subject animals.
Pancreases were fixed in 10% formalin, embedded in paraffin, and sliced into sections having a thickness of 2 μm. The sections were immunostained with overnight incubation at 4° C. in dilution solutions containing various primary antibodies described below.
Primary antibodies: Anti-insulin antibody (dilution rate 1:500; DAKO), anti-glucagon antibody (dilution rate 1:500; Linco Research Inc.), anti-DBA antibody (dilution rate 1:300; Vector Laboratories), anti-Pdx-1 antibody (dilution rate 1:1000; kindly provided by Chris V. E. Wright, Vanderbilt University), anti-collagen type IV antibody (dilution rate 1:250; PROGEN Biotechnik), and anti-Glut 4 antibody (dilution rate 1:1000; Chemicon).
The primary antibodies were detected by immunofluorescence labeling using secondary antibodies conjugated with Alexa 488 or Alexa 568 (1:200; Molecular Probes); third antibody conjugated with biotin-labeled secondary antibodies and streptavidin Alexa 488 or Alexa 568 (1:800; Vector Laboratories); or by an immunoperoxidase staining method using biotin-labeled secondary antibodies. Staining was visualized with diaminobenzidine. The sections were counterstained with hematoxylin. Images were captured on a BZ9000 microscope (Keyence), or in the confocal mode on an LSM 510 META confocal microscope (Carl Zeiss). Immunofluorescence intensity was measured in random fields (n=30/section) using LSM Zeiss software, and the result was expressed as average pixel intensity.
ICERIγ transgenic mice (male) were generated from a pure line C57BL/6J (Japan SLC, Inc.) in accordance with the method described in Example 1 of Patent Literature 1 (WO2004/072282). […]
Tg23 mice (11 weeks of age) were divided into two groups: an estradiol administration group (n=24), and a control group (n=57). […] Then, body weight and blood glucose levels of the Tg mice and wild-type mice (WT) (n=81) were monitored every week, and the mice were dissected after 43 weeks. […]

For experiment [2], the system named is Tg23 mice (diabetic nephropathy). In words: Experimental Example 2: effect of estradiol on second to third stage of diabetic nephropathy. The method, then: (a) Albumin concentration: Albuwellkit (Exocell),
(b) Creatinine: High-performance liquid chromatography (HPLC), and
(c) Creatinine clearance (Ccr): calculated by the next formula.
Ccr=urine creatinine (mg/dL)×urine volume (μL/min)/serum creatinine (mg/dL)/body weight (g). [Math. 1]
50 glomeruli were analyzed for each of the mice. The total area of the glomeruli was measured in PAS-stained sections using Image-Pro Plus (Media Cybernetics). The PAS-positive area fraction was calculated as the ratio of PAS-positive area to glomerular sectional surface area. Glomerular number was measured by counting all of the glomeruli per mid-transverse section of left kidney for each of the mice.
For Tg23 mice, at 20-35 weeks of age, which is when reduction in renal functions and renal lesions are observed, a single pellet of 17β-estradiol was subcutaneously administered, and the effect of estradiol was investigated. […]
PAS staining, and immunostaining using the anti-collagen type IV antibody were performed on glomerular tissues from each of the mice (48 weeks of age), and the results of the staining are shown respectively in FIG. 2(1) and FIG. 2(2). […] The expression intensity was measured in random fields (n=30/section) of the glomerulus, and the result was expressed as average pixel intensity.

The subject of experiment [3] is muscles (soleus muscle) of Tg23 mice. Put plainly: Experimental Example 3: glucose (2-deoxy-D-glucose) intake of soleus muscles. The settings on record: Tg mice, Tx-E group vs Ct group, 20-40 weeks after the administration.
Protocol: Mice were sacrificed, and extensor digitorum longus (EDL) muscles and soleus muscles were quickly removed and processed. Both ends of each of the muscles were tied with suture (silk 4-0), and mounted on an incubation apparatus. First, the muscles were preincubated for 20 minutes in 6 ml of Krebs-Ringer bicarbonate (KRB) buffer (117 mM NaCl, 4.7 mM KCl, 2.5 mM CaCl2, 1.2 mM KH2PO4, 1.2 mM MgSO4, 24.6 mM NaHCO3, pH 7.5) containing 2 mM pyruvate. Then, the muscles were incubated in KRB buffer in presence or absence of insulin.
Immediately after muscle incubation, the muscles were transferred to KRB buffer containing 1 mM 2-deoxy-D-[^3H]glucose (1.5 μCi/ml) and 7 mM D-[^14C]mannitol (0.3 μCi/ml) (PerkinElmer Life Sciences) at 30° C., and incubated again for 10 minutes. When using insulin, a buffer containing insulin was used for incubation in a similar manner.
Glucose transport was terminated by dipping the muscles in KRB buffer containing 80 μmol/L cytochalasin B at 4° C., and then the muscles were frozen in liquid nitrogen. The muscles were weighed, and digested by incubating in 250 μl of 1 M NaOH at 80° C. for 10 minutes. Digests were neutralized with 250 μl of 1 M HCl. […] Radioactivity in aliquots of the digested muscle was determined by liquid scintillation counting for dual labels, and extracellular and intracellular spaces were calculated. […]

For `C[C@]12CC[C@@H]3c4ccc(O)cc4CC[C@H]3[C@@H]1CC[C@@H]2O` [estradiol, 17β-estradiol], in experiment [1] (Tg23 mice 11 weeks of age, testectomy (Tx) + single 17β-estradiol pellet s.c. (0.72 mg/pellet, 90-day release), vs wild-type mice), the blood glucose levels result was “lowered to the same levels of normal mice”. Besides, the “persistence of lowered blood glucose levels” value in experiment [1] (Tx+E group, Tg23 mice) was “maintained until death”. Also, in experiment [1] (Tx+E group, anti-insulin immunostaining, 1 week after estradiol administration), the “insulin-producing cells in pancreatic duct epithelium cells of the pancreas” value is “induced”. For the same molecule, the “sclerosis of the glomeruli (PAS staining, collagen IV immunostaining)” value in experiment [2] (Tg23 mice treated at 24 weeks of age (Tx + single 17β-estradiol pellet s.c.), tissues at 48 weeks of age) was “alleviated to a degree not different from wild-type mice”. Moreover, the “renal functions and renal tissues (GFR, Ualb/Cr, kidney weight, urinary glucose, urine volume)” value in experiment [2] (Tg23 mice, second stage of diabetic nephropathy (early nephropathia stage), Tx + single 17β-estradiol pellet s.c.) was “dramatically improves”. Further, the “amount of glucose intake of muscles” value in experiment [3] is on record as “significantly increases”.

The values above are taken from patent US20120172344A1, “INSULIN-PRODUCING CELL INDUCER, GLUCOSE INTAKE ENHANCER, AND THERAPEUTIC AGENT FOR DIABETES OR DIABETES COMPLICATIONS” (KYUSHU UNIVERSITY, NATIONAL UNIVERSITY CORPORATION, priority 2009, published 2012).
